According to paper PMC10819888, “Benzimidazole-Based Derivatives as Apoptotic Antiproliferative Agents: Design, Synthesis, Docking, and Mechanistic Studies” (Molecules, 2024):

Assays:
Assay in all cases: NCI-60 one-dose assay
Type in all cases: cell-based
CCRF-CEM = conditions: Homo sapiens, CCRF-CEM (Leukemia), read-out: Cell Inhibition Percent
Method: (§1) The final compounds were submitted to the National Cancer Institute, Bethesda, USA, for screening in vitro for anti-cancer. […] compounds, 4a–j, 5, and 6, were selected according to the Development Therapeutic Program (DTP) protocol. The selected compounds were evaluated for their in vitro cytotoxic activity against a panel of sixty cancer cell lines (NCI-60 cell line panel) derived from six cell lines panel of leukemia, nine cell lines of lung cancer, six cell lines of CNS cancer, seven cell lines of colon cancer, eight cell lines of melanoma, six cell lines of ovarian cancer, eight cell lines of renal cancer, two cell lines of prostate cancer, and eight cell lines of breast cancer, representing the full nine human systems as leukemia, melanoma, and cancers of the lung, colon, brain, breast, ovary, kidney, and prostate.
(§2) The selected compounds 4a–j, 5, and 6 were tested at a single concentration of 10 µM. The screening results for the selected compounds are illustrated in Table 1.
(§3) The NCI anti-cancer screening methodology has been described in detail elsewhere (http://www.dtp.nci.nih.gov, accessed on 20 February 2021). Following the Drug Evaluation Branch protocol, National Cancer Institute, Bethesda, USA, a primary anti-cancer assay was performed on approximately 60 human tumor cell line panels derived from nine neoplastic diseases.

HCC-2998 = conditions: Homo sapiens, HCC-2998 (Colon Cancer), read-out: Cell Inhibition Percent
Method: as §1, §2, §3

HOP-62 = conditions: Homo sapiens, HOP-62 (Non-Small Cell Lung Cancer), read-out: Cell Inhibition Percent
Method: as §1, §2, §3

A498 = conditions: Homo sapiens, A498 (Renal Cancer), read-out: Cell Inhibition Percent
Method: as §1, §2, §3

SW-620 = conditions: Homo sapiens, SW-620 (Colon Cancer), read-out: Cell Inhibition Percent
Method: as §1, §2, §3

HS 578T = conditions: Homo sapiens, HS 578T (Breast Cancer), read-out: Cell Inhibition Percent
Method: as §1, §2, §3

RXF 393 = conditions: Homo sapiens, RXF 393 (Renal Cancer), read-out: Cell Inhibition Percent
Method: as §1, §2, §3

T-47D = conditions: Homo sapiens, T47D, T-47D (Breast Cancer), read-out: Cell Inhibition Percent
Method: as §1, §2, §3

786-0 = conditions: Homo sapiens, 786-0 (Renal Cancer), read-out: Cell Inhibition Percent
Method: as §1, §2, §3

HL-60(TB) = conditions: Homo sapiens, HL-60(TB) (Leukemia), read-out: Cell Inhibition Percent
Method: as §1, §2, §3

NCI-H460 = conditions: Homo sapiens, NCI-H460 (Non-Small Cell Lung Cancer), read-out: Cell Inhibition Percent
Method: as §1, §2, §3

NCI-H23 = conditions: Homo sapiens, NCI-H23 (Non-Small Cell Lung Cancer), read-out: Cell Inhibition Percent
Method: as §1, §2, §3

OVCAR-4 = conditions: Homo sapiens, OVCAR-4 (ovarian cancer), read-out: Cell Inhibition Percent
Method: as §1, §2, §3

PC-3 = conditions: Homo sapiens, PC-3 (Prostate Cancer), read-out: Cell Inhibition Percent
Method: as §1, §2, §3

SK-MEL-5 = conditions: Homo sapiens, SK-MEL-5 (Melanoma), read-out: Cell Inhibition Percent
Method: as §1, §2, §3

K-562 = conditions: Homo sapiens, K562, K-562 (Leukemia), read-out: Cell Inhibition Percent
Method: as §1, §2, §3

HCT-116 = conditions: Homo sapiens, HCT-116 (Colon Cancer), read-out: Cell Inhibition Percent
Method: as §1, §2, §3

MALME-3M = conditions: Homo sapiens, MALME-3M (Melanoma), read-out: Cell Inhibition Percent
Method: as §1, §2, §3

HT29 = conditions: Homo sapiens, HT-29, HT29 (Colon Cancer), read-out: Cell Inhibition Percent
Method: as §1, §2, §3

SNB-19 = conditions: Homo sapiens, SNB-19 (CNS cancer), read-out: Cell Inhibition Percent
Method: as §1, §2, §3

SNB-75 = conditions: Homo sapiens, SNB-75 (CNS cancer), read-out: Cell Inhibition Percent
Method: as §1, §2, §3

MDA-MB-468 = conditions: Homo sapiens, MDA-MB-468 (Breast Cancer), read-out: Cell Inhibition Percent
Method: as §1, §2, §3

M14 = conditions: Homo sapiens, M14 (Melanoma), read-out: Cell Inhibition Percent
Method: as §1, §2, §3

A549/ATCC = conditions: Homo sapiens, A549/ATCC (Non-Small Cell Lung Cancer), read-out: Cell Inhibition Percent
Method: as §1, §2, §3

NCI-H522 = conditions: Homo sapiens, NCI-H522 (Non-Small Cell Lung Cancer), read-out: Cell Inhibition Percent
Method: as §1, §2, §3

SF-268 = conditions: Homo sapiens, SF-268 (CNS cancer), read-out: Cell Inhibition Percent
Method: as §1, §2, §3

MOLT-4 = conditions: Homo sapiens, MOLT-4 (Leukemia), read-out: Cell Inhibition Percent
Method: as §1, §2, §3

ACHN = conditions: Homo sapiens, ACHN (Renal Cancer), read-out: Cell Inhibition Percent
Method: as §1, §2, §3

SF-539 = conditions: Homo sapiens, SF-539 (CNS cancer), read-out: Cell Inhibition Percent
Method: as §1, §2, §3

OVCAR-5 = conditions: Homo sapiens, OVCAR-5 (ovarian cancer), read-out: Cell Inhibition Percent
Method: as §1, §2, §3

HCT-15 = conditions: Homo sapiens, HCT-15 (Colon Cancer), read-out: Cell Inhibition Percent
Method: as §1, §2, §3

SMILES	inhibition at 10 µM (CCRF-CEM)	inhibition at 10 µM (HCC-2998)	inhibition at 10 µM (HOP-62)	inhibition at 10 µM (A498)	inhibition at 10 µM (SW-620)	inhibition at 10 µM (HS 578T)	inhibition at 10 µM (RXF 393)	inhibition at 10 µM (T-47D)	inhibition at 10 µM (786-0)	inhibition at 10 µM (HL-60(TB))	inhibition at 10 µM (NCI-H460)	inhibition at 10 µM (NCI-H23)	inhibition at 10 µM (OVCAR-4)	inhibition at 10 µM (PC-3)	inhibition at 10 µM (SK-MEL-5)	inhibition at 10 µM (K-562)	inhibition at 10 µM (HCT-116)	inhibition at 10 µM (MALME-3M)	inhibition at 10 µM (HT29)	inhibition at 10 µM (SNB-19)	also measured
O=C(NN=Cc1ccc(Cl)cc1Cl)c1ccc2[nH]c(-c3ccc(Cl)cc3)nc2c1 [Compound 4f, N′-(2,4-Dichlorobenzylidene)-2-(4-chlorophenyl)-1H-benzimidazole-5-carbohydrazide]	48.1%	3.25%	5.89%	36.7%	4.3%	10.4%	12.5%	12.3%	0%	5.98%	1.37%	4.26%	0%	7.03%	2.92%	53.7%	8.63%	9.55%	2.18%	7.76%	inhibition at 10 µM (SNB-75): 12.4%; inhibition at 10 µM (MDA-MB-468): 0%; inhibition at 10 µM (M14): 17.1%; inhibition at 10 µM (A549/ATCC): 4.7%; inhibition at 10 µM (NCI-H522): 7.79%; inhibition at 10 µM (SF-268): 3.63%; inhibition at 10 µM (MOLT-4): 72.6%; inhibition at 10 µM (ACHN): 9.01%; inhibition at 10 µM (SF-539): 5.73%; inhibition at 10 µM (OVCAR-5): 0%; inhibition at 10 µM (HCT-15): 0%
COc1ccc(C=NNC(=O)c2ccc3[nH]c(-c4ccc(Cl)cc4)nc3c2)cc1 [Compound 4g, N′-(4-Methoxybenzylidene)-2-(4-chlorophenyl)-1H-benzimidazole-5-carbohydrazide]	34.7%	48.9%	69.7%	33.4%	75.6%	67.7%	56.2%	76.7%	96.8%	3.67%	94.1%	58.5%	131%	104%	66.3%	68.1%	81%	93.5%	78.1%	75.8%	inhibition at 10 µM (SNB-75): 8.15%; inhibition at 10 µM (MDA-MB-468): 75.8%; inhibition at 10 µM (M14): 73.8%; inhibition at 10 µM (A549/ATCC): 88%; inhibition at 10 µM (NCI-H522): 17.4%; inhibition at 10 µM (SF-268): 80.1%; inhibition at 10 µM (MOLT-4): 31.8%; inhibition at 10 µM (ACHN): 78.1%; inhibition at 10 µM (SF-539): 57.4%; inhibition at 10 µM (OVCAR-5): 22.7%; inhibition at 10 µM (HCT-15): 42.5%
COc1cc(/C=N/NC(=O)c2ccc3[nH]c(-c4ccc(Cl)cc4)nc3c2)cc(OC)c1OC [Compound 4h, N′-(3,4,5-Trimethoxybenzylidene)-2-(4-chlorophenyl)-1H-benzimidazole-5 carbohydrazide]	63.4%	20%	18.3%	102%	21.3%	51.7%	63.7%	84.1%	48.8%	55.1%	17.2%	46.3%	0%	40.1%	58.1%	67.3%	63.8%	71.6%	60.1%	29%	inhibition at 10 µM (SNB-75): 13.4%; inhibition at 10 µM (MDA-MB-468): 0%; inhibition at 10 µM (M14): 58%; inhibition at 10 µM (A549/ATCC): 14.2%; inhibition at 10 µM (NCI-H522): 21.7%; inhibition at 10 µM (SF-268): 20.3%; inhibition at 10 µM (MOLT-4): 58.5%; inhibition at 10 µM (ACHN): 32.3%; inhibition at 10 µM (SF-539): 56.2%; inhibition at 10 µM (OVCAR-5): 0%; inhibition at 10 µM (HCT-15): 3.98%
O=C(N/N=C/c1ccc(O)cc1)c1ccc2[nH]c(-c3ccc(Cl)cc3)nc2c1 [Compound 4i, N′-(4-Hydroxybenzylidene)-2-(4-chlorophenyl)-1H-benzimidazole-5-carbohydrazide]	13.6%	0%	0%	5.34%	0%	5.94%	0%	24.2%	0%	0%	0%	4.44%	0%	0%	4.32%	0.25%	0%	21.4%	0%	0%	inhibition at 10 µM (SNB-75): 0%; inhibition at 10 µM (MDA-MB-468): 0%; inhibition at 10 µM (M14): 0.44%; inhibition at 10 µM (A549/ATCC): 0%; inhibition at 10 µM (NCI-H522): 9.85%; inhibition at 10 µM (SF-268): 13.7%; inhibition at 10 µM (MOLT-4): 15.6%; inhibition at 10 µM (ACHN): 4.33%; inhibition at 10 µM (SF-539): 1.95%; inhibition at 10 µM (OVCAR-5): 0%; inhibition at 10 µM (HCT-15): 0%
CCNC(=S)NNC(=O)c1ccc2[nH]c(-c3ccc(Cl)cc3)nc2c1 [Compound 5]	86.9%	5.54%	0.87%	57.7%	0%	9.75%	7.61%	18.4%	0%	0%	1.06%	5.79%	5.13%	7.83%	9.57%	88.4%	0%	1.54%	2.33%	2.37%	inhibition at 10 µM (SNB-75): 7.77%; inhibition at 10 µM (MDA-MB-468): 0%; inhibition at 10 µM (M14): 1.67%; inhibition at 10 µM (A549/ATCC): 6.17%; inhibition at 10 µM (NCI-H522): 5.4%; inhibition at 10 µM (SF-268): 1.33%; inhibition at 10 µM (MOLT-4): 90%; inhibition at 10 µM (ACHN): 6.31%; inhibition at 10 µM (SF-539): 12.2%; inhibition at 10 µM (OVCAR-5): 3.26%; inhibition at 10 µM (HCT-15): 5.9%
